In ChEMBL document CHEMBL3045570, “Rational herbicide design by inhibition of tryptophan biosynthesis” (Bioorg Med Chem Lett, 1999):
The source made the active and inactive calls. The rule behind the calls is not given here.

Experiments:
[1] = Inhibition of Salmonella enterica subsp. enterica serovar Typhimurium tryptophan synthase alpha subunit; conditions: read-out: I50
Arabidopsis thaliana [2] = experiment: Herbicidal activity against Arabidopsis thaliana seedlings assessed as injury at 8 to 1000 uM in presence of tryptophan; type: functional, organism-based
Arabidopsis thaliana [3] = experiment: Herbicidal activity against Arabidopsis thaliana seedlings assessed as injury at 8 to 16 uM; type: functional, organism-based
Arabidopsis thaliana [4] = experiment: Herbicidal activity against Arabidopsis thaliana seedlings assessed as chlorosis at 125 to 1000 uM; type: functional, organism-based
Arabidopsis thaliana [5] = experiment: Herbicidal activity against Arabidopsis thaliana seedlings assessed as injury at 31 to 1000 uM; type: functional, organism-based
Amaranthus viridis = experiment: Herbicidal activity against Amaranthus viridis assessed as injury at 4 kg/ha applied as spray during postemergence measured after 2 weeks; type: functional
Chenopodium album = experiment: Herbicidal activity against Chenopodium album assessed as injury at 4 kg/ha applied as spray during postemergence measured after 2 weeks; type: functional
Arabidopsis thaliana [6] = experiment: Herbicidal activity against Arabidopsis thaliana seedlings assessed as chlorosis at 8 to 1000 uM; type: functional, organism-based
Arabidopsis thaliana [7] = experiment: Herbicidal activity against Arabidopsis thaliana seedlings assessed as injury at 8 to 1000 uM; type: functional, organism-based
[8] = molecular target: T1, Tryptophan synthase alpha /beta chains (Escherichia coli K-12, UniProt P0A877+P0A879); experiment: Binding affinity to tryptophan synthase alpha2/beta2 complex in Escherichia coli K-12 by equlibrium dialysis method; type: protein-complex assay
T1 sequence (P0A879 whole entry): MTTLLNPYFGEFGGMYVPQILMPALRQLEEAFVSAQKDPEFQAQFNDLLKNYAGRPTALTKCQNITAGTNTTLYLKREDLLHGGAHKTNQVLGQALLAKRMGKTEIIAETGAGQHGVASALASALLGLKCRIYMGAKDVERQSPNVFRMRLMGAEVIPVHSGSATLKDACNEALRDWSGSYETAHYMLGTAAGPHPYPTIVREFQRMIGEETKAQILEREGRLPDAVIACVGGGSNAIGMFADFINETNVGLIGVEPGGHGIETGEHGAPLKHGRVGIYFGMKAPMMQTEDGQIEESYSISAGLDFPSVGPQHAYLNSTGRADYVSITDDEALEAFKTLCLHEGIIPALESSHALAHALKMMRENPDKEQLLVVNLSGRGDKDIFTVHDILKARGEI
T1 sequence (P0A877 whole entry): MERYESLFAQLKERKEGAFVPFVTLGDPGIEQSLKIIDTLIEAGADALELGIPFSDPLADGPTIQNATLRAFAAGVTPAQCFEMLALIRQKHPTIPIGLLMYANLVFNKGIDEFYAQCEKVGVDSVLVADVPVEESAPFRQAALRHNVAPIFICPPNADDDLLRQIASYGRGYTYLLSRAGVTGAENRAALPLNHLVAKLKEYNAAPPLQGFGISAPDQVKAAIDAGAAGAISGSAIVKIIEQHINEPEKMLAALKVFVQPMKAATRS

Ki [8] [nM] | SMILES | IC50 [1] [nM] | Activity (Arabidopsis thaliana [2]) | Activity (Arabidopsis thaliana [3]) | Activity (Arabidopsis thaliana [4]) | Activity (Arabidopsis thaliana [5]) | Activity (Amaranthus viridis) | Activity (Chenopodium album) | Activity (Arabidopsis thaliana [6]) | Activity (Arabidopsis thaliana [7])
– | O=P(O)(O)CCCc1c[nH]c2ccccc12 | 12500 | – | – | – | – | – | – | – | –
– | O=P(O)(O)CCCCSc1ccccc1O | 130 | inactive | inactive | Active | Active | <=80% | <=80% | – | –
– | O=P(O)(O)/C=C/CCS(=O)(=O)c1ccccc1O | 360 | – | – | – | – | inactive | inactive | – | –
– | O=P(O)(O)/C=C/CC[S+]([O-])c1ccccc1O (centres undefined) | 440 | inactive | – | – | – | <=80% | <=80% | Active | Active
– | O=P(O)(O)/C=C/CCSc1ccccc1O | 570 | inactive | – | – | – | <=80% | <=80% | Active | Active
– | O=P(O)(O)CCCCc1c[nH]c2ccccc12 | 20000 | – | – | – | – | – | – | – | –
15000 | O=P(O)(O)OCCCc1c[nH]c2ccccc12 | 5000 | – | – | – | – | – | – | – | –
– | Nc1ccccc1SCCCCP(=O)(O)O | 400 | – | – | – | – | <=65% | <=65% | – | –
